The values below come from patent US20240398811A1, “PRC2 INHIBITORS FOR USE IN TREATING BLOOD DISORDERS” (ORIC Pharmaceuticals, Inc., priority 2021, published 2024).

Each structure is given as a SMILES string.

Sequence of purified human, His-tagged PRC2 complex (O75530 whole entry): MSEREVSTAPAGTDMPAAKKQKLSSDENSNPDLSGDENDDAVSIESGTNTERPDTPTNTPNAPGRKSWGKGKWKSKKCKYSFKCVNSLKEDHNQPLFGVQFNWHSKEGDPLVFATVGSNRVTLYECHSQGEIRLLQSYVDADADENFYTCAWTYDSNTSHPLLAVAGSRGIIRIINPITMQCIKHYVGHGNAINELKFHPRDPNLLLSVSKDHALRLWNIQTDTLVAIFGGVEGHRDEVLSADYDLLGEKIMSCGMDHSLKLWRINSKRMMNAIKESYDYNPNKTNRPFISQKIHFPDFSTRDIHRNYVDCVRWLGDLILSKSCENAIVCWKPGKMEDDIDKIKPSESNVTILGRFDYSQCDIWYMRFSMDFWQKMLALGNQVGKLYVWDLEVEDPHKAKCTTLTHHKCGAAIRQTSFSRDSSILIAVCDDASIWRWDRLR
Sequence of purified human, His-tagged PRC2 complex (Q15910 whole entry partner): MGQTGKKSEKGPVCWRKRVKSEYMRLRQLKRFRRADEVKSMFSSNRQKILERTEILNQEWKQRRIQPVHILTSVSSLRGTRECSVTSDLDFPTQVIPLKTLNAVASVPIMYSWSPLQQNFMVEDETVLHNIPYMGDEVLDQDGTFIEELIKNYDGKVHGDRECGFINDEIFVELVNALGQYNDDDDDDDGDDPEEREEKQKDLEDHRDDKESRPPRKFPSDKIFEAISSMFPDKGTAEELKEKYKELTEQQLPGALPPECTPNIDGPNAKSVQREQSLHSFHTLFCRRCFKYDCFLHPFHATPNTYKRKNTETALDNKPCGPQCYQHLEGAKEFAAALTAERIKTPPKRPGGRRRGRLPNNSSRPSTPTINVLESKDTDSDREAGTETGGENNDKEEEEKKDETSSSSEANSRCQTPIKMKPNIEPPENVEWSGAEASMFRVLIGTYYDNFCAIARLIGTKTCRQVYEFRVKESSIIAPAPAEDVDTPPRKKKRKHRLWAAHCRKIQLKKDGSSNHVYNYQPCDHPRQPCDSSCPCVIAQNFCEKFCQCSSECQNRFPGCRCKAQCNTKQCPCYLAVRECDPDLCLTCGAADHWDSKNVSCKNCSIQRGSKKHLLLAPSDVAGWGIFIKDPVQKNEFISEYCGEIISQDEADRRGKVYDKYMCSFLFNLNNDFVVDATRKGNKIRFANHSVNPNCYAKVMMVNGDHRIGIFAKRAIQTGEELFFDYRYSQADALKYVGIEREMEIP
Sequence of purified human, His-tagged PRC2 complex (Q15022 whole entry partner): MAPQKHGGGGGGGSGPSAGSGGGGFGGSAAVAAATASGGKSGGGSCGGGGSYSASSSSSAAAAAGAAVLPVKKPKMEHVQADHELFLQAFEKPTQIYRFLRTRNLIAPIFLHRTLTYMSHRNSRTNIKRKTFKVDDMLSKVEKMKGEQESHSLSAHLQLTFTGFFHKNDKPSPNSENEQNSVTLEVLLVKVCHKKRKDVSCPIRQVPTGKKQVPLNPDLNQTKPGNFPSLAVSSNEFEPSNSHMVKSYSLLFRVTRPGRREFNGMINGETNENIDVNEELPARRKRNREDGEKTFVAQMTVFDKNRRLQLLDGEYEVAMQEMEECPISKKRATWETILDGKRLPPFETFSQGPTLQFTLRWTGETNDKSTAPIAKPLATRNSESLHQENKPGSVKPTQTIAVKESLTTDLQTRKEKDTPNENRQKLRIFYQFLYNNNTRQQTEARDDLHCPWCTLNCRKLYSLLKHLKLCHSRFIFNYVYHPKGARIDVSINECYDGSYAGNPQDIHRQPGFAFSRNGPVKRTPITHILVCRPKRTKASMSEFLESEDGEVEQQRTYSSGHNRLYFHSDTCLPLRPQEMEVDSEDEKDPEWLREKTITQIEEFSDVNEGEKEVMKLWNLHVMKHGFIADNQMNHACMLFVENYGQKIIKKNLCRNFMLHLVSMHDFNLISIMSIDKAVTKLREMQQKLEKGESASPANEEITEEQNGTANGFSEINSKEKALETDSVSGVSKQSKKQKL
Sequence of purified human, His-tagged PRC2 complex (Q6ZN18 whole entry partner): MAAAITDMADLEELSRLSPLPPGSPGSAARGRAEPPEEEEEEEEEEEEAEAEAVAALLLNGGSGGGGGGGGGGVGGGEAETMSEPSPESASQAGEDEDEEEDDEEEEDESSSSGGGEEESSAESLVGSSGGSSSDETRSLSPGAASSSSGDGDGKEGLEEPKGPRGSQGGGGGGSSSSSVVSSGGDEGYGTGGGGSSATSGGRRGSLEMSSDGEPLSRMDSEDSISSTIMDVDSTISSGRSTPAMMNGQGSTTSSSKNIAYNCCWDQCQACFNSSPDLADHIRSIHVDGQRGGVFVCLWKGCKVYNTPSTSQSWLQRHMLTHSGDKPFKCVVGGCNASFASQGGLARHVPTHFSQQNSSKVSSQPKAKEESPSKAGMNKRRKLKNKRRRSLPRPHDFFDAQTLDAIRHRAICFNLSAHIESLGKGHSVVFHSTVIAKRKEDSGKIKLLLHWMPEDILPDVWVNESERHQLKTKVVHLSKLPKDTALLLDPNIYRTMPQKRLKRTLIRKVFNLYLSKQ
Sequence of purified human, His-tagged PRC2 complex (Q09028 whole entry partner): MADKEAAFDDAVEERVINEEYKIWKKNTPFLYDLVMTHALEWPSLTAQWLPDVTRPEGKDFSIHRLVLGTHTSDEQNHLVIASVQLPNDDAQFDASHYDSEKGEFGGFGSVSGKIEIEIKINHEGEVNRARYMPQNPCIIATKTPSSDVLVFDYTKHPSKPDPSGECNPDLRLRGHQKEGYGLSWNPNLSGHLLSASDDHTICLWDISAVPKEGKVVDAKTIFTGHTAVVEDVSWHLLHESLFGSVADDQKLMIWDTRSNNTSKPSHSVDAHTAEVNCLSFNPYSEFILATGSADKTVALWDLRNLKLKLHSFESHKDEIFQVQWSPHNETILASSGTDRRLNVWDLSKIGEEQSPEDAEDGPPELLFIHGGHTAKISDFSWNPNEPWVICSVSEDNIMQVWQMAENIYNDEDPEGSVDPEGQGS

The experiment concerns the target purified human, His-tagged PRC2 complex (Homo sapiens (Human), UniProt O75530). As to the kind of experiment: Hot Spot HMT assay, inhibition of PRC2 enzymatic activity. To be noted: 10 nM PRC2 complex, 1 μM 3H-SAM, core histone H3, 10-point dose-response. The experiment is classed as biochemical. In outline:
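Five-subunit PRC2 complex (EZH2, EED, SUZ12, AEBP2, RbAp48; 10 nM) preincubated 20 min at 30° C with compound (top 1.0 μM) and 0.05 mg/ml core histone H3 in Tris-HCl, 1% DMSO. Started with 1 μM [3H]SAM, 1 hr at 30° C; tritiated H3 measured by filter binding and scintillation.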
What is called IC50 is the concentration at which inhibition is half-maximal. A lower IC50 goes with greater potency in that assay. `Cc1cc(-c2cnc(NCc3c(F)ccc4sccc34)n3cc(C#N)nc23)n(C)n1` [Example 81, 8-(1,3-dimethyl-1H-pyrazol-5-yl)-5-(((5-fluorobenzo[b]thiophen-4-yl)methyl)amino)imidazo[1,2-c]pyrimidine-2-carbonitrile] returned an IC50 above 500 nM.

Compound `N#Cc1cn2c(NCc3c(F)ccc4c3CCO4)ncc(-c3ccc(S(=O)(=O)C(F)(F)F)cc3)c2n1` [Example 82, 5-(((5-fluoro-2,3-dihydrobenzofuran-4-yl)methyl)amino)-8-(4-((trifluoromethyl)sulfonyl)phenyl)imidazo[1,2-c]pyrimidine-2-carbonitrile] had an IC50 of 100 to 500 nM.

Consider `CN(C)Cc1ccc(-c2cnc(NCc3c(F)ccc4c3CCO4)n3cc(C#N)nc23)c(Cl)c1F` [Example 83, 8-(2-chloro-4-((dimethylamino)methyl)-3-fluorophenyl)-5-(((5-fluoro-2,3-dihydrobenzofuran-4-yl)methyl)amino)imidazo[1,2-c]pyrimidine-2-carbonitrile], for which the 50% inhibitory concentration (IC50) is below 100 nM.

Regarding `Cc1cc(CN(C)C)c(F)cc1-c1cnc(NCc2c(F)ccc3c2CCO3)n2cc(C#N)nc12` [Example 84, 8-(4-((dimethylamino)methyl)-5-fluoro-2-methylphenyl)-5-(((5-fluoro-2,3-dihydrobenzofuran-4-yl)methyl)amino)imidazo[1,2-c]pyrimidine-2-carbonitrile], the IC50 is 100 to 500 nM.

Take `Cc1c(-c2cnc(NCc3c(F)ccc4c3CCO4)n3cc(C#N)nc23)ccc(CN(C)C)c1F` [Example 85, 8-(4-((dimethylamino)methyl)-3-fluoro-2-methylphenyl)-5-(((5-fluoro-2,3-dihydrobenzofuran-4-yl)methyl)amino)imidazo[1,2-c]pyrimidine-2-carbonitrile]: the IC50 was below 100 nM.

Take `Cc1cc(-c2cnc(NCc3c(F)ccc4c3CCO4)n3cc(C#N)nc23)n(C)n1` [Example 86, 8-(1,3-dimethyl-1H-pyrazol-5-yl)-5-(((5-fluoro-2,3-dihydrobenzofuran-4-yl)methyl)amino)imidazo[1,2-c]pyrimidine-2-carbonitrile]: the half-inhibitory concentration (IC50) is below 100 nM.

For `Cc1cc(S(C)(=O)=O)ccc1-c1cnc(NCc2c(F)ccc3c2CCO3)n2cc(C#N)nc12` [Example 87, 5-(((5-fluoro-2,3-dihydrobenzofuran-4-yl)methyl)amino)-8-(2-methyl-4-(methylsulfonyl)phenyl)imidazo[1,2-c]pyrimidine-2-carbonitrile], the IC50 is below 100 nM.

With `COc1ncc(-c2cnc(NCc3c(F)ccc4c3CCO4)n3cc(C#N)nc23)c(C)n1` [Example 88, 5-(((5-fluoro-2,3-dihydrobenzofuran-4-yl)methyl)amino)-8-(2-methoxy-4-methylpyrimidin-5-yl)imidazo[1,2-c]pyrimidine-2-carbonitrile], the IC50 is below 100 nM.

`Cc1nc(OC(C)C)ncc1-c1cnc(NCc2c(F)ccc3c2CCO3)n2cc(C#N)nc12` [Example 89, 5-(((5-fluoro-2,3-dihydrobenzofuran-4-yl)methyl)amino)-8-(2-isopropoxy-4-methylpyrimidin-5-yl)imidazo[1,2-c]pyrimidine-2-carbonitrile] gave an IC50 below 100 nM.

`CC(c1ccc(-c2cnc(NCc3c(F)ccc4c3CCO4)n3cc(C#N)nc23)cc1)N1CCCC1` (stereo not shown) [Example 90, 5-(((5-fluoro-2,3-dihydrobenzofuran-4-yl)methyl)amino)-8-(4-(1-(pyrrolidin-1-yl)ethyl)phenyl)imidazo[1,2-c]pyrimidine-2-carbonitrile] had an IC50 below 100 nM.

In turn, `COc1cc(Cl)c(-c2cnc(NCc3c(F)ccc4c3CCO4)n3cc(C#N)nc23)cn1` [Example 91, 8-(4-chloro-6-methoxypyridin-3-yl)-5-(((5-fluoro-2,3-dihydrobenzofuran-4-yl)methyl)amino)imidazo[1,2-c]pyrimidine-2-carbonitrile] came in with a half-inhibitory concentration (IC50) of 100 to 500 nM.

With `Cc1nn(C(C)C)c(C)c1-c1cnc(NCc2c(F)ccc3c2CCO3)n2cc(C#N)nc12` [Example 92, 5-(((5-fluoro-2,3-dihydrobenzofuran-4-yl)methyl)amino)-8-(1-isopropyl-3,5-dimethyl-1H-pyrazol-4-yl)imidazo[1,2-c]pyrimidine-2-carbonitrile], the IC50 was 100 to 500 nM.

`COc1cncc(-c2cnc(NCc3c(F)ccc4c3CCO4)n3cc(C#N)nc23)c1` [Example 93, 5-(((5-fluoro-2,3-dihydrobenzofuran-4-yl)methyl)amino)-8-(5-methoxypyridin-3-yl)imidazo[1,2-c]pyrimidine-2-carbonitrile]: the IC50 was in the range of 100 to 500 nM.

In the case of `COc1ccc(-c2cnc(NCc3c(F)ccc4c3CCO4)n3cc(C#N)nc23)cn1` [Example 94, 5-(((5-fluoro-2,3-dihydrobenzofuran-4-yl)methyl)amino)-8-(6-methoxypyridin-3-yl)imidazo[1,2-c]pyrimidine-2-carbonitrile], the concentration for half-maximal inhibition (IC50) is below 100 nM.

As for `N#Cc1cncc(-c2cnc(NCc3c(F)ccc4c3CCO4)n3cc(C#N)nc23)c1` [Example 95, 8-(5-cyanopyridin-3-yl)-5-(((5-fluoro-2,3-dihydrobenzofuran-4-yl)methyl)amino)imidazo[1,2-c]pyrimidine-2-carbonitrile], the IC50 was below 100 nM.

With `Cc1cncc(-c2cnc(NCc3c(F)ccc4c3CCO4)n3cc(C#N)nc23)c1` [Example 96, 5-(((5-fluoro-2,3-dihydrobenzofuran-4-yl)methyl)amino)-8-(5-methylpyridin-3-yl)imidazo[1,2-c]pyrimidine-2-carbonitrile], the 50% inhibitory concentration (IC50) is below 100 nM.

Compound `N#Cc1cn2c(NCc3c(F)ccc4c3CCO4)ncc(-c3cncc(F)c3)c2n1` [Example 97, 5-(((5-fluoro-2,3-dihydrobenzofuran-4-yl)methyl)amino)-8-(5-fluoropyridin-3-yl)imidazo[1,2-c]pyrimidine-2-carbonitrile] came in with an IC50 below 100 nM.

`Cc1ccncc1-c1cnc(NCc2c(F)ccc3c2CCO3)n2cc(C#N)nc12` [Example 98, 5-(((5-fluoro-2,3-dihydrobenzofuran-4-yl)methyl)amino)-8-(4-methylpyridin-3-yl)imidazo[1,2-c]pyrimidine-2-carbonitrile] gave an IC50 below 100 nM.

As for `CC(C)n1cc(-c2cnc(NCc3c(F)ccc4c3CCO4)n3cc(C#N)nc23)cn1` [Example 99, 5-(((5-fluoro-2,3-dihydrobenzofuran-4-yl)methyl)amino)-8-(1-isopropyl-1H-pyrazol-4-yl)imidazo[1,2-c]pyrimidine-2-carbonitrile], the 50% inhibitory concentration (IC50) was below 100 nM.

In turn, `N#Cc1cn2c(NCc3c(F)ccc4c3CCO4)ncc(-c3cccnc3)c2n1` [Example 100, 5-(((5-fluoro-2,3-dihydrobenzofuran-4-yl)methyl)amino)-8-(pyridin-3-yl)imidazo[1,2-c]pyrimidine-2-carbonitrile] showed a concentration for half-maximal inhibition (IC50) below 100 nM.

`N#Cc1cn2c(NCc3c(F)ccc4c3CCO4)ncc(-c3cnn(Cc4cccnc4)c3)c2n1` [Example 101, 5-(((5-fluoro-2,3-dihydrobenzofuran-4-yl)methyl)amino)-8-(1-(pyridin-3-ylmethyl)-1H-pyrazol-4-yl)imidazo[1,2-c]pyrimidine-2-carbonitrile] yielded an IC50 of 100 to 500 nM.

Compound `CN(C)CCn1cc(-c2cnc(NCc3c(F)ccc4c3CCO4)n3cc(C#N)nc23)cn1` [Example 102, 8-(1-(2-(dimethylamino)ethyl)-1H-pyrazol-4-yl)-5-(((5-fluoro-2,3-dihydrobenzofuran-4-yl)methyl)amino)imidazo[1,2-c]pyrimidine-2-carbonitrile] yielded an IC50 of 100 to 500 nM.
